Columns and labels:
Type in all cases: in vivo, NMRI:nu/nu mice
[1] = Body weight change as sign for toxicity, mouse tumor model MT-3; conditions: for Toxic deaths (at day): n=8
Method: (§1) Tumor growth inhibition was used as therapeutic parameter. Additionally, body weight change was determined as signs for toxicity (particularly, potential hematological or gastrointestinal side effects).
(§2) Individual body weights of mice were determined twice weekly and mean body weight per group was related to the initial value in percent (body weight change, BWC), see tables in appendix.
(§3) Descriptive statistics was performed on the data of body weight and tumor volume. […] Statistical evaluation was performed with the U-test of Mann and Whitney with a significance level of p<0.05, using the Windows program […] 6.
(§4) Tables 18 to 24 summarize the results for the tested Docetaxel conjugates and the reference compound Taxotere®. […] The loss of body weight is known to be an indicator of gastro-intestinal and hepatotoxicity of the tested compound.

[2] = Body weight change as sign for toxicity, mouse tumor model PC3; conditions: Table 20, PC3; maximum body weight loss; conjugates 1 x 75 mg/kg day 6; Docetaxel 5 mg/kg days 6-10
Method: as §1
Descriptive statistics was performed on the data of body weight and tumor volume. […] 6.

[3] = Body weight change as sign for toxicity, mouse tumor model A549; conditions: Table 21, A549; maximum body weight loss; conjugates 1 x 75 mg/kg day 8; Docetaxel 5 mg/kg days 8-12
Method: as §1, §2, §3, §4

SMILES	Toxic deaths (at day) ([1]; Table 25, MT-3, conjugates 1 x 100 mg/kg day 7, Paclitaxel 12.5 mg/kg days 7-9, 10 mg/kg days 10-11)	Toxic deaths (at day) ([1]; Table 26, MT-3, conjugates 1 x 80 mg/kg day 10, Paclitaxel 10 mg/kg days 10-14)	BWC [%] (at day) [2]	Toxic deaths (at day) ([1]; Table 18, MT-3, conjugates 1 x 100 mg/kg i.v. day 7, Docetaxel 10 mg/kg days 7, 9, 11)	Toxic death (at day) ([1]; Table 23, MT-3, conjugates 1 x 75 mg/kg day 7, Docetaxel 5 mg/kg days 7-11)	BWC [%] (at day) [3]
CC(=O)O[C@H]1C(=O)[C@@]2(C)[C@H]([C@H](OC(=O)c3ccccc3)[C@]3(O)C[C@H](OC(=O)[C@H](O)[C@@H](NC(=O)c4ccccc4)c4ccccc4)C(C)=C1C3(C)C)[C@]1(OC(C)=O)CO[C@@H]1C[C@@H]2O [Paclitaxel]	1	0	–	–	–	–
CC(=O)O[C@@]12CO[C@@H]1C[C@H](O)[C@@]1(C)C(=O)[C@H](O)C3=C(C)[C@@H](OC(=O)[C@H](O)[C@@H](NC(=O)OC(C)(C)C)c4ccccc4)C[C@@](O)([C@@H](OC(=O)c4ccccc4)[C@H]21)C3(C)C [Taxotere, Docetaxel]	–	–	−14	4	0	−5

Source: patent US20140088298A9, “CONJUGATES COMPRISING HYDROXYALKYL STARCH AND A CYTOTOXIC AGENT AND PROCESS FOR THEIR PREPARATION” (Fresenius Kabi Deutschland GmbH, priority 2010, published 2014)
